Data: ChEMBL document CHEMBL1201862, “PubChem BioAssay data set” (2004)
Activity calls are given as the source filed them.

Tests used:
Fatty acid synthase [1] = target: T1, Fatty acid synthase (Homo sapiens, UniProt P49327); assay: inhibition of human FAS-TE enzyme activity – biochemical, endpoint fluorescence intensity, uHTS hits, dose response (AID 624327); format: functional;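 further: fluorescence from hydrolysis of an O-methyl fluorescein acyl ester substrate by the enzyme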
Fatty acid synthase [2] = target: T1, Fatty acid synthase; assay: inhibition of human FAS-TE enzyme activity – biochemical, kinetic fluorescence intensity, dose response (AID 624326); format: functional;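 further: rate of fluorescence rise from hydrolysis of a fluorogenic O-methyl fluorescein ester substrate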
[3] = target: T2, Short transient receptor potential channel 4 (Mus musculus, UniProt Q9QUQ5); assay: calcium entry via TRPC4 opening agents – cell-based, HEK293 TRPC4/mu-opioid, Fluo-4 calcium, dose response (AID 434937); format: functional
T2 sequence (Q9QUQ5 whole entry): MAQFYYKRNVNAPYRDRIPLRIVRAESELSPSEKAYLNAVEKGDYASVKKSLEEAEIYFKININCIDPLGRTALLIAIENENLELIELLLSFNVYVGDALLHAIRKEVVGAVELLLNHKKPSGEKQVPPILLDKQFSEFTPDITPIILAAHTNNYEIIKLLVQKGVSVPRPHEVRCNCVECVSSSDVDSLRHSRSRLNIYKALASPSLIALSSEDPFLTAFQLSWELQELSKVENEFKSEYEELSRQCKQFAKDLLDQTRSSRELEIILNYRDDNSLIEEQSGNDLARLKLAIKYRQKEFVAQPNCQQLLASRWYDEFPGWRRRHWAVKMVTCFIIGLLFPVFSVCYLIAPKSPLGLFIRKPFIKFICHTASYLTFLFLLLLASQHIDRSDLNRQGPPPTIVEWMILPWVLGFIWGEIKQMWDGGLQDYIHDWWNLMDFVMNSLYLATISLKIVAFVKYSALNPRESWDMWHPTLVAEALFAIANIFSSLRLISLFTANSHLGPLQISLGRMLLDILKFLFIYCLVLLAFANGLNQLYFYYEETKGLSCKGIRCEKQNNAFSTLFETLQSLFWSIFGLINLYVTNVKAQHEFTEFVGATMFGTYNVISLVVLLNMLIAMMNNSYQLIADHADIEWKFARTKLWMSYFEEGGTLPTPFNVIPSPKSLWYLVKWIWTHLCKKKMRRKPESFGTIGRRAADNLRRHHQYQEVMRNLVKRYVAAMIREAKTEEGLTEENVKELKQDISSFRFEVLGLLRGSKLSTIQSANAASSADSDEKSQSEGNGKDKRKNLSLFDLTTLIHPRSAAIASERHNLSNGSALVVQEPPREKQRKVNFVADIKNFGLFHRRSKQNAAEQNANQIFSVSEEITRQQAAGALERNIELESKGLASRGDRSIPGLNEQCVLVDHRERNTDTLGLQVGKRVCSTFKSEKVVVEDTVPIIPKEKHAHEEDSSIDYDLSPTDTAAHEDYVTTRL

[4] = intracellular Trypanosoma cruzi inhibitors in host cells – cell-based, plate reader, cherry-pick samples, set 3, dose response (AID 651818); format: functional;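 further: compounds incubated with infected cells for about four days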
[5] = P. falciparum Dd2 growth inhibitors, dose response, SYBR Green, cherry-picked samples (AID 1159567); format: functional, cell-based
[6] = target: T3, Adenosylmethionine-8-amino-7-oxononanoate aminotransferase (Mycobacterium tuberculosis, UniProt P9WQ81); assay: Mycobacterium tuberculosis BioA enzyme inhibitor Measured in Biochemical System Using Plate Reader - 2163-02_Inhibitor_Dose_CherryPick_Activity.; format: functional, Mycobacterium tuberculosis UT205
T3 sequence (P9WQ81 whole entry): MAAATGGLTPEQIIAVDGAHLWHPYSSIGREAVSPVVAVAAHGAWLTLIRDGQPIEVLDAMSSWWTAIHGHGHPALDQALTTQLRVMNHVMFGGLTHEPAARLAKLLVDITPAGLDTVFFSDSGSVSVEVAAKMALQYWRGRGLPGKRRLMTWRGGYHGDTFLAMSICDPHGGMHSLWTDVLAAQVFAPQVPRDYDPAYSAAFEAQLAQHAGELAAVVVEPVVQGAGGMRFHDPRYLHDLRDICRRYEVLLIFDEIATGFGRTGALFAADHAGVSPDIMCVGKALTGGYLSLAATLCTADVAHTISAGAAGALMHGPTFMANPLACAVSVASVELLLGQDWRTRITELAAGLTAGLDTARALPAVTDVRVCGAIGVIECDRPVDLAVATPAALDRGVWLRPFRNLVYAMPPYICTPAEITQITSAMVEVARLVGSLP

[7] = target: T4, Mannose-6-phosphate isomerase (Homo sapiens, UniProt P34949); assay: phosphomannose isomerase inhibition – biochemical, fluorescence intensity, confirmation (AID 1535)
T4 sequence (P34949 whole entry): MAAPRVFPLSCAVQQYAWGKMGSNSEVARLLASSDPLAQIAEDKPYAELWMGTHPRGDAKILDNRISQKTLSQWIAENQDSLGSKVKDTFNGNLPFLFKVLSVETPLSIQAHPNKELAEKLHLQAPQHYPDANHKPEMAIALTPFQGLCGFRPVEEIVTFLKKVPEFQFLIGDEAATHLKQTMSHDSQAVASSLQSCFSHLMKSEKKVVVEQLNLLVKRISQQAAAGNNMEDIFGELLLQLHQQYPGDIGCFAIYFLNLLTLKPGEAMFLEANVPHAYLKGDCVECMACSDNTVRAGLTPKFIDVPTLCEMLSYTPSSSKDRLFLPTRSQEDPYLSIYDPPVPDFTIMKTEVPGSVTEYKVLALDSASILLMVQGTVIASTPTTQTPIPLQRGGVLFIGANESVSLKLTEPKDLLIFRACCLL

Phosphomannomutase 2 = target: T5, Phosphomannomutase 2 (Homo sapiens, UniProt O15305); assay: Counter screen SAR assay for PMM2 inhibitors via a fluorescence intensity assay. [Related pubchem assays (depositor defined):AID1545, AID1574]
T5 sequence (O15305 whole entry): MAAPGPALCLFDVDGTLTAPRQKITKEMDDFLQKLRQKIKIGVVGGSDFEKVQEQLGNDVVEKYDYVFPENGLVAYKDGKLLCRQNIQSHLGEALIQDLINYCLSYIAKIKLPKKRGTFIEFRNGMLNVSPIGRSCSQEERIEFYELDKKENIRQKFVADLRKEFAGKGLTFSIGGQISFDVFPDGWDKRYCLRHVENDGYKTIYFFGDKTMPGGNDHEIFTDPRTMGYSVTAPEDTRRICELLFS

[8] = target: T6, Zinc finger protein mex-5 (Caenorhabditis elegans, UniProt Q9XUB2); assay: potency of MEX-5 RNA-binding blockers – biochemical, C. elegans, fluorescence polarization, dose response (AID 1960)
T6 sequence (Q9XUB2 whole entry): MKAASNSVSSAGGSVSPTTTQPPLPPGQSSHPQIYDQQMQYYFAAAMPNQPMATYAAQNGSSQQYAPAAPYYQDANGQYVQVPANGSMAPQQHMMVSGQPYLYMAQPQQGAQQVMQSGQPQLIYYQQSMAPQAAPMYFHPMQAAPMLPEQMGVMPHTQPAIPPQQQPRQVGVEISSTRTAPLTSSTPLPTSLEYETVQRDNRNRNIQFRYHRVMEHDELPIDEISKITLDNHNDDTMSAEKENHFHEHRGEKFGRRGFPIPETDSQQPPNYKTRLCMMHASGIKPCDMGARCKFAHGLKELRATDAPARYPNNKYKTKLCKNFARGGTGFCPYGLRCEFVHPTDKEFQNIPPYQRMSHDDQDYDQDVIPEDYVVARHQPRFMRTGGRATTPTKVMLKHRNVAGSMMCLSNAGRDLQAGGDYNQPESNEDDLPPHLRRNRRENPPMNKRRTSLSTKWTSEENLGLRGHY

[9] = target: T7, RNA-binding protein pos-1 (Caenorhabditis elegans, UniProt G5EF15); assay: disruptors of C. elegans POS-1 RNA interaction – biochemical, fluorescence polarization, dose response (AID 1964);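 further: purified POS-1 fused to maltose binding protein made in E. coli; potency of compounds blocking POS-1 binding to fluorescent RNA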
T7 sequence (G5EF15 whole entry): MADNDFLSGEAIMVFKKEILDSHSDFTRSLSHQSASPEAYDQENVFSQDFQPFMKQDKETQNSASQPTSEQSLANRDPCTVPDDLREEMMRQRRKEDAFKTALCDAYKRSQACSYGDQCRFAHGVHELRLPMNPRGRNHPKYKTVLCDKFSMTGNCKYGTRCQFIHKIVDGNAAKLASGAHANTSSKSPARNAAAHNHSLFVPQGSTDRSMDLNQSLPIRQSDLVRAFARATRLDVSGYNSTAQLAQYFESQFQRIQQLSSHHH

Genome polyprotein = Genome polyprotein (dengue virus type 2, UniProt P29990); assay: flavivirus cap methylation enzyme inhibition – biochemical, confirmation dose response, primary screen (AID 588689); format: functional
Sequence of Genome polyprotein (P29990 2492-3391 limits assumed): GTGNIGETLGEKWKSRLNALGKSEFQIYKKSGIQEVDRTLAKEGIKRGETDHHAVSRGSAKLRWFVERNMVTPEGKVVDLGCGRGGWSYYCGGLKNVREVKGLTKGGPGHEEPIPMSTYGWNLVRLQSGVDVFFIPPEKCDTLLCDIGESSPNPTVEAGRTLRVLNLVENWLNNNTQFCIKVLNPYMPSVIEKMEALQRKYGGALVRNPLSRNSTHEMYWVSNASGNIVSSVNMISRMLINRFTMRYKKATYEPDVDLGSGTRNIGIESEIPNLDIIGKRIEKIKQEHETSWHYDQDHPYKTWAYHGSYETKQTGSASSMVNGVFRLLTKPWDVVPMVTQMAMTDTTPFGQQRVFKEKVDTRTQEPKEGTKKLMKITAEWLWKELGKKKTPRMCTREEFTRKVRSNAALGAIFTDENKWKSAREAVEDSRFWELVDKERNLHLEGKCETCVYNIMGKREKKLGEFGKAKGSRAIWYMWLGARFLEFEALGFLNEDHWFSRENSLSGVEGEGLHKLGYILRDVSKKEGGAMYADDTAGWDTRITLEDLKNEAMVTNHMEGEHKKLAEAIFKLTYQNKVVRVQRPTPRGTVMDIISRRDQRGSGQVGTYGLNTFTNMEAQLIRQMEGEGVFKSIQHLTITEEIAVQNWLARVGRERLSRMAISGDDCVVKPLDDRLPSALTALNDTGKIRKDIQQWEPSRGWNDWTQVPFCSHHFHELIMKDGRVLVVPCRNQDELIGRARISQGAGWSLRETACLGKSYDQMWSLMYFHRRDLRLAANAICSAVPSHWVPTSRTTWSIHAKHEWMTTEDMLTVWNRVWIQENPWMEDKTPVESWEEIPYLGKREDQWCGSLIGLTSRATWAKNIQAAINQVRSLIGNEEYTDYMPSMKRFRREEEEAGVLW

[10] = target: T8, DNA repair and recombination protein RAD54-like (Homo sapiens, UniProt Q92698); assay: RAD54 Holliday junction migration blockers – biochemical, fluorescence, cherry-picked samples, dose series, confirmation (AID 651657); format: functional
T8 sequence (Q92698 whole entry): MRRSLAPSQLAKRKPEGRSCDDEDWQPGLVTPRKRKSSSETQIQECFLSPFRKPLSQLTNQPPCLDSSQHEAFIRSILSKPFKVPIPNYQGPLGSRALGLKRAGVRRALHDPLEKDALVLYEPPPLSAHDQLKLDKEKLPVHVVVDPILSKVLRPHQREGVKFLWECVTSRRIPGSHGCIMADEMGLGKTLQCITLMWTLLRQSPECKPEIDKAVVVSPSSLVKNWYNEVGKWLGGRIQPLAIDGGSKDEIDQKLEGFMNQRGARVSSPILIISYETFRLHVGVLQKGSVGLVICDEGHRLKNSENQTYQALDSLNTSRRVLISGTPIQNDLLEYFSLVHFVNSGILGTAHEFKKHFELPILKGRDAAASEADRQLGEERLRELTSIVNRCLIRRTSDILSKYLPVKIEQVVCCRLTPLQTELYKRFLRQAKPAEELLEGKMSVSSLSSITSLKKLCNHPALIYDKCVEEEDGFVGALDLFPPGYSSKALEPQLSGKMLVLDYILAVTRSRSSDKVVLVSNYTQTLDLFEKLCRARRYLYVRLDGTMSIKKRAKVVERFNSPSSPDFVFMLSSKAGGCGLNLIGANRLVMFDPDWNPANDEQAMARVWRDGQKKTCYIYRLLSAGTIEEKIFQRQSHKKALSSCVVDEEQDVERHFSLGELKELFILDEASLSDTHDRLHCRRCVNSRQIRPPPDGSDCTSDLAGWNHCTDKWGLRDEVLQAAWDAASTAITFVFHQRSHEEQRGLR

[11] = Trypanosoma cruzi growth suppression in host cells – NIH3T3 host cells, beta-gal luminescence, confirmation (AID 2044); format: functional, cell-based;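 further: intracellular parasites grown in NIH/3T3 mouse fibroblasts as host cells; luminescent beta-galactosidase reporter signal from transgenic T. cruzi replicating inside host cells; inhibitors lower the luminescence signal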
[12] = NIH3T3 cell viability loss – ATP luminescence, mouse fibroblasts, counter-screen, dose response (AID 2010); format: functional, cell-based;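 further: cells exposed to compound for about 90 hours before reading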
INS1 = assay: INS-1E survival protection against cytokine death – cell-based, luminescence, retest, dose response (AID 449756); format: functional; settings: Rattus norvegicus, INS1;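 further: cell death triggered by IL-1 beta plus TNF-alpha plus IFN-gamma mixture; protective hits raise ATP signal compared with cytokine alone wells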

T1 sequence (P49327 whole entry): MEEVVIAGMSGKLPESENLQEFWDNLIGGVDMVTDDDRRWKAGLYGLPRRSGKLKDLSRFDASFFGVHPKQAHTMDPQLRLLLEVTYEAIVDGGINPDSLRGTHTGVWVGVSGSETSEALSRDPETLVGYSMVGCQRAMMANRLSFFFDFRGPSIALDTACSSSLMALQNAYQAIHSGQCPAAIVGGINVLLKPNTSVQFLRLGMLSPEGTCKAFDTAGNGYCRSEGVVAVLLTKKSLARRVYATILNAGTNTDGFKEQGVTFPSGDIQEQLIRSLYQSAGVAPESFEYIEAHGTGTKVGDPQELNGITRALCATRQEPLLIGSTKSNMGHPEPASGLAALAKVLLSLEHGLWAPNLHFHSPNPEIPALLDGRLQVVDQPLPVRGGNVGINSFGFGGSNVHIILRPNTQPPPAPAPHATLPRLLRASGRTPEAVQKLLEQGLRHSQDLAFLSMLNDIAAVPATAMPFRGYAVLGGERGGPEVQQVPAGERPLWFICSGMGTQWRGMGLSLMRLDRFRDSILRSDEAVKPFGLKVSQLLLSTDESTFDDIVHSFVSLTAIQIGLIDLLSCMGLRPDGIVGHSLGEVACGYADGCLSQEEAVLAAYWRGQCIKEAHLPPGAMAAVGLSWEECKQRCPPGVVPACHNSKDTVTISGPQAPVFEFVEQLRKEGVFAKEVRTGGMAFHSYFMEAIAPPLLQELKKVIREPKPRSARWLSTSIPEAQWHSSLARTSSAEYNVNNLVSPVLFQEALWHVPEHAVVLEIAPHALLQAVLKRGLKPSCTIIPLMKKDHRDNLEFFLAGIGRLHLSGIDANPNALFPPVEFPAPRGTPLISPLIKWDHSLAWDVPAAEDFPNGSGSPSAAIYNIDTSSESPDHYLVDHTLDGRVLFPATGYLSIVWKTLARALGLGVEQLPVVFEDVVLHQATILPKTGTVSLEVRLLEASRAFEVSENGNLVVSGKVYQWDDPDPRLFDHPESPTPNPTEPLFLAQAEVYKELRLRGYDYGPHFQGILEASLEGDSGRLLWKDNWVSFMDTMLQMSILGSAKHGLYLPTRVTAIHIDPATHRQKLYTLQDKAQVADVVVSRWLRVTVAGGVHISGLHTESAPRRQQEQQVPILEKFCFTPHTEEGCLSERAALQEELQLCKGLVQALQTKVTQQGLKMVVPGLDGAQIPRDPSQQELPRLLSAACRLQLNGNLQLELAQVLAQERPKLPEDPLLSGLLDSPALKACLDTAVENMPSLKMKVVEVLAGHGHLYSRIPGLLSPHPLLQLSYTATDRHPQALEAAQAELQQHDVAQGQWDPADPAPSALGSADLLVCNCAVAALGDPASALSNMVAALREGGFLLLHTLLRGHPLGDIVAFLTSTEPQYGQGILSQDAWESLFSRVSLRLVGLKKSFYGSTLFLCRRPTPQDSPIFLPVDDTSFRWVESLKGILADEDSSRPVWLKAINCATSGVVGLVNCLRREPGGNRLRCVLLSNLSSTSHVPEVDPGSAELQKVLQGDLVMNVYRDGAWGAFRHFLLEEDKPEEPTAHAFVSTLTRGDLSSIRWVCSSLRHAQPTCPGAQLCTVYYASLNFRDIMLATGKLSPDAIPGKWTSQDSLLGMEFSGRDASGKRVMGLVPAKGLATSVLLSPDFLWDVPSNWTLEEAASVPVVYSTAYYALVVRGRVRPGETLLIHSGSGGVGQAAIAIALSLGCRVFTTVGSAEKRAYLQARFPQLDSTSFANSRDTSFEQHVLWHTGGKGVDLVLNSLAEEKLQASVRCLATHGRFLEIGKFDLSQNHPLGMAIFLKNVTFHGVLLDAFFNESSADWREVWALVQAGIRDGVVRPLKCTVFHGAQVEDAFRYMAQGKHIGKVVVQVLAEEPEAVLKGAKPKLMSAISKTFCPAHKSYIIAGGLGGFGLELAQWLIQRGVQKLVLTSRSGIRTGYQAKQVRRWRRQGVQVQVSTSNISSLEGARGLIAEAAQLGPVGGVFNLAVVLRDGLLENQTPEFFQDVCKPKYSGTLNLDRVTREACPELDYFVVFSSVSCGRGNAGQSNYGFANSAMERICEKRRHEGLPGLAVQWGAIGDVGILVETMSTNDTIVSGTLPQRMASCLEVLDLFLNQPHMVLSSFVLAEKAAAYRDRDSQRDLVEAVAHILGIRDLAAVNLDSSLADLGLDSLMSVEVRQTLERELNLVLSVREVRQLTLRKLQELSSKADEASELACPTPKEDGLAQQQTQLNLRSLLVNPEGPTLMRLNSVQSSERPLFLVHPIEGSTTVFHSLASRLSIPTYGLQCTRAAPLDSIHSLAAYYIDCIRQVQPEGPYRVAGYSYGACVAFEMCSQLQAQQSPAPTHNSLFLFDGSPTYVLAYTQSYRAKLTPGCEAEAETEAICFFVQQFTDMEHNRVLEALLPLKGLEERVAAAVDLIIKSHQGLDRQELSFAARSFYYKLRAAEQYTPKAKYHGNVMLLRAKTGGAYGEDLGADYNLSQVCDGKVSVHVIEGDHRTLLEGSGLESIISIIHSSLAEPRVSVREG

## COc1cc2c(C)nc3onc(-c4ccccc4)c3c2cc1OC
Fatty acid synthase [1]
  IC50: 7.51 µM (active)
Fatty acid synthase [2]
  IC50: 19.4 µM (active)

## CN(C)CCCN(C(=O)c1ccc(S(=O)(=O)N2CCc3ccccc32)cc1)c1nc2ccc(F)cc2s1
[3]
  EC50: 2.66 µM (active)

## Cc1ccc([N+](=O)[O-])cc1S(=O)(=O)NCC1COc2ccccc2O1 (centres undefined)
Fatty acid synthase [1]
  IC50: 5.17 µM (active)
Fatty acid synthase [2]
  IC50: 4.43 µM (active)

## C[C@H](CO)N1C[C@H](C)[C@@H](CN(C)Cc2ccc(-c3ccccc3)cc2)Oc2c(NC(=O)c3ccc(-c4nccs4)cc3)cccc2C1=O
[4]
  AC50: 3.54 µM (active)
[5]
  AC50: 5.28 µM (active)

## Cc1nc2ccc([N+](=O)[O-])cc2c(=O)n1Cc1ccc(Br)cc1
Fatty acid synthase [1]
  IC50: 0.623 µM (active)
Fatty acid synthase [2]
  IC50: 0.719 µM (active)

## C[C@H](CO)N1C[C@H](C)[C@H](CN(C)Cc2ccccc2)Oc2ccc(NC(=O)Nc3ccc(C(F)(F)F)cc3)cc2C1=O
[4]
  AC50: 6.57 µM (active)

## C[C@@H]1CN([C@@H](C)CO)C(=O)Cc2cc(NC(=O)Cn3cnnn3)ccc2O[C@H]1CN(C)Cc1ccc2c(c1)OCO2
[6]
  AC50: 10.5 µM (active)

## Cc1csc2c(N3CCN(C(S)=Nc4ccc(C(F)(F)F)cc4)CC3)ncnc12
[3]
  EC50: 1.68 µM (active)

## CN(C)c1ccc(/N=c2\ssnc2Cl)cc1
[7]
  IC50: 12.4 µM (active)
Phosphomannomutase 2
  IC50: > 100 µM (inactive)

## CCC(=O)OC1(C)C(=O)C=C2C=C(C3CC3)OC=C2C1=O (centres undefined)
[8]
  EC50: 30.4 µM (active)
[9]
  EC50: > 300 µM (not active)
Genome polyprotein
  IC50: > 100 µM (active)

## Cc1c(-c2cc(Br)ccc2O)nc2cc3c(cc2c1C)OCO3
[10]
  AC50: 57.5 µM (active)

## COCCNC(=O)C[C@H]1CC[C@@H]2[C@H](COc3ccc(NC(=O)Nc4cccc(F)c4)cc3C(=O)N2C)O1
[6]
  AC50: 6.86 µM (active)

## COc1ccccc1CN1CC(C(=O)NCCN(C)CCc2ccccc2)CCC1=O (centres undefined)
[11]
  EC50: < 0.1 µM (active)
[12]
  EC50: > 60 µM (not active)
cells
  EC50: 0.061 µM (active)

## C/C=C/c1ccc2c(c1)O[C@@H](CN(C)C(=O)Nc1ccc(F)cc1)[C@@H](C)CN([C@@H](C)CO)S2(=O)=O
[6]
  AC50: 4.65 µM (active)

## CCN(CC)CC(=O)Nc1cccc2c1C(=O)c1ccccc1C2=O
[10]
  AC50: 100 µM (inactive)

## O=S(=O)(NCCc1csc(-c2ccccc2)n1)c1cccnc1
[3]
  EC50: 3.76 µM (active)

## O=[N+]([O-])c1ccc(/N=c2\ssnc2Cl)c2ccccc12
[7]
  IC50: > 100 µM (inactive)
Phosphomannomutase 2
  IC50: > 100 µM (inactive)

## O=C(NCCc1ccccn1)c1ccc(OC2CCN(CCc3ccccc3)CC2)cc1
[3]
  EC50: 1.19 µM (active)

## Cc1ccccc1Cn1c(C)nc2ccc([N+](=O)[O-])cc2c1=O
Fatty acid synthase [1]
  IC50: 9.84 µM (active)
Fatty acid synthase [2]
  IC50: 7.08 µM (active)

## C[C@H]1CN([C@@H](C)CO)C(=O)Cc2cc(NC(=O)Nc3ccc(C(F)(F)F)cc3)ccc2O[C@@H]1CN(C)Cc1ccc(C(F)(F)F)cc1
[4]
  AC50: 5.04 µM (active)

## CCCCCCOc1ccc(CN2CCN(C)CC2)cc1
[11]
  EC50: < 0.1 µM (active)
[12]
  EC50: 4.32 µM (active)
INS1
  AC50: 4.04 µM (active)
cells
  EC50: 0.076 µM (active)

## C[C@@H]1CCCCO[C@@H](CN(C)CC2CCCCC2)[C@@H](C)CN([C@H](C)CO)C(=O)c2cc(NS(=O)(=O)c3ccc(Cl)cc3)ccc2O1
[4]
  AC50: 2.18 µM (active)

## Cc1ccc2nc(-n3sc4ccccc4c3=O)sc2c1
[7]
  IC50: > 50 µM (inactive)
Phosphomannomutase 2
  IC50: > 100 µM (inactive)

## COc1ccc([N+](=O)[O-])cc1C(=O)NC1CCN(Cc2ccccc2)CC1
[6]
  AC50: 2.3 µM (active)
